# Molecular target: T1, human KV 1.5 (IKur) (Homo sapiens, UniProt P22460)
# T1 construct: expressed in transfected cells
# Test: block of IKur current in patch clamped L-929 cells expressing human Kv1.5
# Assay type: cell-based
# Settings: 0.3 μM; patch clamped mammalian L-929 cells stably expressing human Kv1.5
# Description: Assays to determine the degree of activity of a compound as an IKur inhibitor are well known in the art and are described in references such as J. Gen. Physiol., 101(4):513-543 (April 1993), and Br. J. Pharmacol., 115(2):267-274 (May 1995).
# Synders, D. J. et al., “A rapidly activating and slowly inactivating potassium channel cloned from human heart: functional analysis after stable mammalian cell culture expression”, J. Gen. Physiol., 101:513-543 (1993). • 2. Zhou, Z. et al., “Block of HERG potassium channels by the antihistamine astemizole and its metabolites desmethylastemizole and norastemizole”, J. Cardiovasc. Electrophysiol., 10(6):836-843 (1999).
# T1 sequence (P22460 whole entry): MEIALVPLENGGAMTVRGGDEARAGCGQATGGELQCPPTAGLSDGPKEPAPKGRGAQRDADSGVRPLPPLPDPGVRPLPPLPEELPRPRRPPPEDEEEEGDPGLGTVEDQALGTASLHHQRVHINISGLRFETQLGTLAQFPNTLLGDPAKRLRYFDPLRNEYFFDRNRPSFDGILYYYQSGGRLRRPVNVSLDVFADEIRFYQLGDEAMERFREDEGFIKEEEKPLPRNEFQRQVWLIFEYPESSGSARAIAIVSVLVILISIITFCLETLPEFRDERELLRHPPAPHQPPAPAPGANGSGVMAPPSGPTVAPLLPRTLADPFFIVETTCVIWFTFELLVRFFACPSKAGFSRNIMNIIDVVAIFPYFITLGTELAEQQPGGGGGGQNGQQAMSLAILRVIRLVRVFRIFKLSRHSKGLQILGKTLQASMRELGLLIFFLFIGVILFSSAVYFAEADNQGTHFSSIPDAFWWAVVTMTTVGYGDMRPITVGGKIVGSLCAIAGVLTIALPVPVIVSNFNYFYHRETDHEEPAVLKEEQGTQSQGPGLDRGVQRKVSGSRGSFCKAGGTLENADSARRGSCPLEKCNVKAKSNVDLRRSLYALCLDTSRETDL
row,SMILES,KV1_5% Inh L929 @0.3 μM [%]
1,"CC(Nc1nc(-c2cncc(S(N)(=O)=O)c2)nn2ccc(-c3ccccc3)c12)c1ccc(F)cc1 (centres unmarked) [Example 77, 5-(4-(1-(4-fluorophenyl)ethylamino)-5-phenylpyrrolo[1,2-f] [1,2,4]triazin-2-yl)pyridine-3-sulfonamide]",95.70

# Same assay, conditions: L929, 0.3 μM; patch clamped mammalian L-929 cells stably expressing human Kv1.5; read-out: KV1_5% Inh L929 @0.3 μM
row,SMILES,inhibition at 0.3 µM [%]
1,"N#Cc1ccc(-c2nc(NCc3ccccn3)c3c(-c4ccccc4)ccn3n2)cc1 [Example 67, 4-(5-phenyl-4-(pyridin-2-ylmethylamino)pyrrolo [1,2-f][1,2,4]triazin-2-yl)benzonitrile]",97.8
2,"Nc1cncc(-c2nc(NCc3ccccn3)c3c(-c4cncc(N)c4)ccn3n2)c1 [Example 68, 5,5′-(4-(pyridin-2-ylmethylamino)pyrrolo [1,2-f][1,2,4]triazine-2-,5-diyl)dipyridin-3-amine]",28.1
3,"N#Cc1cccc(-c2ccn3nc(-c4cncc(N)c4)nc(NCc4ccccn4)c23)c1 [Example 69, 3-(2-(5-aminopyridin-3-yl)-4-(pyridin-2-ylmethylamino)pyrrolo [1,2-f][1,2,4]triazin-5-yl)benzonitrile]",80.3
4,"COc1ccc(-c2ccn3nc(-c4cncc(N)c4)nc(NCc4ccccn4)c23)cn1 [Example 70, 2-(5-aminopyridin-3-yl)-5-(6-methoxypyridin-3-yl)-N-(pyridin-2-ylmethyl) pyrrolo[1,2-f][1,2,4] triazin-4-amine]",85.4
5,"Cc1ncc(-c2nc(NCc3ccccn3)c3c(-c4ccccc4)ccn3n2)cc1N [Example 71, 2-(5-amino-6-methylpyridin-3-yl)-5-phenyl-N-(pyridin-2-ylmethyl)pyrrolo[1,2-f] [1,2,4]triazin-4-amine]",89.1
6,"CC(C)OC(=O)Nc1cncc(-c2nc(NCc3ccccn3)c3c(-c4ccccc4)ccn3n2)c1 [Example 72, isopropyl 5-(5-phenyl-4-(pyridin-2-ylmethylamino)pyrrolo[1,2-f][1,2,4]triazin-2-yl)pyridin-3-ylcarbamate]",95.5
7,"Nc1cncc(-c2nc(NCC3CCCCC3)c3c(-c4ccccc4)ccn3n2)c1 [Example 73, 2-(5-aminopyridin-3-yl)-N-(cyclohexylmethyl)-5-phenylpyrrolo[1,2-f] [1,2,4] triazin-4-amine]",88.3
8,"CS(=O)(=O)Nc1cncc(-c2nc(NCc3ccccc3)c3c(-c4ccccc4)ccn3n2)c1 [Example 74, N-(5-(4-(benzylamino)-5-phenylpyrrolo [1,2-f][1,2,4]triazin-2-yl)pyridin-3-yl) methanesulfonamide]",96.7
9,"CS(=O)(=O)Nc1cncc(-c2nc(NCC3CCCCC3)c3c(-c4ccccc4)ccn3n2)c1 [Example 75, N-(5-(4-(cyclohexylmethylamino)-5-phenylpyrrolo[1,2-f] [1,2,4]triazin-2-yl)pyridin-3-yl)methanesulfonamide]",90.9
10,"CC(Nc1nc(-c2cncc(S(N)(=O)=O)c2)nn2ccc(-c3ccccc3)c12)c1ccc(F)cc1 (centres unmarked) [Example 76, 5-(4-(1-(4-fluorophenyl)ethylamino)-5-phenylpyrrolo[1,2-f] [1,2,4]triazin-2-yl) pyridine-3-sulfonamide]",93.8
11,"O=C(O)CC(=O)Nc1cncc(-c2nc(NCc3ccccc3)c3c(-c4ccccc4)ccn3n2)c1 [Example 78, 3-(5-(4-(benzylamino)-5-phenylpyrrolo [1,2-f][1,2,4]triazin-2-yl)pyridin-3-ylamino)-3-oxopropanoic acid]",22.9
12,"NS(=O)(=O)c1cncc(-c2nc(NCc3c(F)cccc3F)c3c(-c4ccccc4)ccn3n2)c1 [Example 79, 5-(4-(2,6-difluorobenzylamino)-5-phenylpyrrolo [1,2-f][1,2,4]triazin-2-yl)pyridine-3-sulfonamide]",96
13,"N#Cc1ccc(-c2nc(NCc3ccccc3)c3c(-c4ccccc4)ccn3n2)cn1 [Example 80, 5-(4-(-benzylamino)-5-phenylpyrrolo [1,2-f][1,2,4]triazin-2-yl) picolinonitrile]",96.9

# From patent US9050345B2, “Pyrrolotriazines as potassium ion channel inhibitors” (BRISTOL-MYERS SQUIBB COMPANY, priority 2013, dated 2015)
